Target: 5-hydroxytryptamine receptor 6 (Homo sapiens, UniProt P50406)
Assay: Radioligand Binding Assay: The screening of the disclosed compounds for their potential ability to interact with serotonin 5-HT6 receptors was carried out b the method of radioligand binding.

Sequence of 5-hydroxytryptamine receptor 6 (P50406 whole entry): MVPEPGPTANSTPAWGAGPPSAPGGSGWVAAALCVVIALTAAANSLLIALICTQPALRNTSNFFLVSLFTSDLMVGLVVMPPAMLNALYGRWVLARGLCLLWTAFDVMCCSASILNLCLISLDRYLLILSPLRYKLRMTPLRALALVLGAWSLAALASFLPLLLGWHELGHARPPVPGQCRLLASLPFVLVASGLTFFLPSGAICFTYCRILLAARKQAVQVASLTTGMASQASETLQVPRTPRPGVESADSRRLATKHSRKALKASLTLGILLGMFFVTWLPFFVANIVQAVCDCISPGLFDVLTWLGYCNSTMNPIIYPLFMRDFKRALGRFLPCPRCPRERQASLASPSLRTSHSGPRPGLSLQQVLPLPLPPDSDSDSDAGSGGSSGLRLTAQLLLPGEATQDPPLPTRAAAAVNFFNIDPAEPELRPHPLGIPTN

| SMILES | IC50 | Ki |
| --- | --- | --- |
| CNc1nn2cc3c(nc2c1S(=O)(=O)c1ccccc1)CCN(C)C3 | 7.02 nM | 3.26 nM |
| CNc1nn2c3c(cnc2c1S(=O)(=O)c1ccccc1)CN(C)CC3 | 0.837 nM |  |
